Results reported in PMC10582583, “The novel cyclophilin inhibitor C105SR reduces hepatic ischaemia–reperfusion injury via mitoprotection” (JHEP Reports, 2023).
Where two headings read alike, the source gives them in different places.

Columns and labels:
[1] = test system: AML-12 cells; assay: Propidium iodide staining, hypoxia/reoxygenation; assay type: cell-based, mouse; settings: 1 μM; 4 h hypoxia, 1 h reoxygenation
Experimental: To assess whether the new SMCypIs reduced mPTP opening-induced cell death, propidium iodide fluorescence was measured in cells that had been co-loaded with calcein-AM. As expected, the loss of calcein fluorescence in cells subjected to hypoxia/reoxygenation was associated with enhanced propidium iodide fluorescence (Fig. 3A and 3C).
Calcium retention capacity (CRC) assay. Isolated liver mitochondria (1 mg/mL) energized with 5 mM glutamate/malate were incubated in a buffer allowing respiration of mitochondria (100 mM KCl, 50 mM sucrose, 10 mM HEPES, 5 mM KH2PO4, pH 7.4 at 30°C) supplemented with 1 µM calcium green 5N fluorescent probe. Mitochondria were pulsed with sequential additions of CaCl2 (20 µM) until mPTP opening along with rapid calcium release happened. The calcium concentration in the extra-mitochondrial medium was monitored with a Jasco FP-6300 spectrofluorimeter (Jasco, Bouguenais, France) at 506 nm excitation and 532 nm emission wavelengths.
Mitochondrial swelling assay. Mitochondrial swelling was assessed by measuring changes in absorbance at 540 nm using a Jasco V-530 spectrophotometer (Bouguenais, France) equipped with magnetic stirring and thermostatic control (30°C). […]
Monitoring of mPTP opening. mPTP opening was monitored in AML-12 cells using the CoCl2-calcein AM fluorescence-quenching assay. […] Calcein fluorescence was measured using a spectrofluorimeter at excitation and emission wavelengths of 485 nm and 535 nm, respectively. Images were acquired using a standard inverted fluorescence microscope (Zeiss Axio, […]
Propidium iodide staining. […] Fluorescence was measured using an Infinite 200 Pro fluorescent plate reader (Tecan, Mannedorf, Switzerland) at excitation and emission wavelengths of 533 nm and 617 nm, respectively. Images were acquired using a standard inverted fluorescence microscope (Zeiss Axio, Oberkochen, Germany). […]
Cell viability assays. Lactate dehydrogenase (LDH) release in culture medium was assessed using the commercially non-radioactive CytoTox-96 kit (Promega, Madison, Wisconsin) following the manufacturer’s instructions. […]

[2] = test system: AML-12 cells; assay: LDH release, hypoxia/reoxygenation; assay type: cell-based, mouse; settings: for inhibition of LDH release / LDH release: 4 h hypoxia, 2 h reoxygenation; for LDH release: applied during hypoxia and reoxygenation
Experimental: As expected, cells subjected to hypoxia/reoxygenation were characterised by greater LDH release and reduced cell viability as compared to untreated controls (Fig. 4A and 4B). […]
Hypoxia/reoxygenation (H/R) in vitro model. AML-12 mouse hepatocyte line was obtained from American Type Culture Collection (ATCC) and maintained in DMEM/F12 culture medium at 37°C with 5% CO2. HepaRG human hepatocyte line was obtained from American Type Culture Collection (ATCC) and maintained in William’S E culture medium at 37°C with 5% CO2.When indicated, cells were incubated in phosphate buffered saline at 37°C in a hypoxic chamber filled with 94% N2, 1% O2, 5% CO2 for 4 h to mimic ischemic conditions. Then, cells were transferred to a CO2 incubator at 37°C in regular DMEM/F12 culture medium for 1 or 2 h under normoxic conditions (74% N2, 21% O2, 5% CO2). SMCypIs or vehicle (DMSO) were added during the hypoxia period, during the reoxygenation period, or during both. CsA and ALV were used as positive controls for hepatic protection against H/R injury. […]
Cell viability assays. Lactate dehydrogenase (LDH) release in culture medium was assessed using the commercially non-radioactive CytoTox-96 kit (Promega, Madison, Wisconsin) following the manufacturer’s instructions. Briefly, cell culture media were collected and the LDH activity was determined by measuring absorbance at 491 nm with a spectrometer (Multiskan skyHigh). For 3-(4,5-dimethylthiazol-2-yl)-2,5-diphenyltetrazolium bromide (MTT) assay, cells were incubated with a solution of MTT (0.5 mg/mL) for 2 h at 37°C. The medium was then removed and 50 µL DMSO was added to each well. Optical density of purple formazan product was measured at 550 nm. Cell viability was expressed as a percentage of the untreated control.

[3] = Plasmatic and hepatic concentration of C105SR in mice; assay type: in vivo; settings: sc, mouse, 50 mg/kg by subcutaneous osmotic pump
Experimental: Briefly, 70% of the liver was subjected to 1 h of ischaemia followed by 6 h of reperfusion, as recently described.[16] C105SR was administered using osmotic pumps at a dose of 50 mg/kg. […]
simulation was performed using @TOME‐2 server with no constraint. The images were generated using PyMOL and MarvinSketch.
Determination of plasmatic and hepatic concentration of C105SR. Mice (10-12 weeks-old, n=6) were anesthetized with isoflurane and subcutaneously implanted with Alzet® osmotic pump containing C105SR (50 mg/kg) or vehicle. 24h after, the blood and the liver were collected. C105SR in plasma and liver homogenates was extracted with cold acetonitrile containing 0.1% of acetic acid and centrifugation at 13,000 x g for 10 min at 4 °C. C105SR dosage was carried out by tandem mass spectrometric detection with a TSQ QUANTIS® mass spectrometer (ThermoFisher Scientific, Villebon-sur-Yvette, France), with an electrospray ionization source (ESI) which was set in positive electro-spray ionization (ESI+). The acquired data were processed using Trace Finder® software version 4.1 (Thermo Fisher Scientific, Villebon-sur-Yvette, France). Optimization of the MS conditions has been performed by single direct infusion of reference standards of the analyte. Two […]

[4] = test system: isolated mouse liver mitochondria; assay: Ca2+-induced mitochondrial swelling assay; assay type: biochemical; settings: energised isolated mouse liver mitochondria

Row | SMILES | propidium iodide fluorescence [1] | inhibition of cell death ([2]; 0.5 μM) | inhibition of LDH release ([2]; 0.5 μM) | LDH release [2] | concentration at 24 h ([3]; liver, read-out: hepatic concentration) | concentration at 24 h ([3]; plasma, read-out: plasmatic concentration) | IC50 [4]
1 | COc1ccc(Br)cc1[C@H](NC(=O)NCc1ccc2c(c1)CCCN2)C(=O)N1CCC[C@@H]1c1cccc2ccsc12 [Compound C105SR, 1-((S)-2-((R)-2-(benzo[b]thiophen-7-yl)pyrrolidin-1-yl)-1-(5-bromo-2-methoxyphenyl)-2-oxoethyl)-3-((1,2,3,4-tetrahydroquinolin-6-yl)methyl)urea] | low propidium iodide fluorescence | inhibited | potent activity inhibiting LDH release | reduced LDH release | ~30 nM | ~30 nM | 9 ± 1 nM
2 | COc1ccc(Br)cc1[C@H](NC(=O)NCc1ccc(N)cc1)C(=O)N1CCC[C@@H]1c1cccc2ccsc12 [Compound C110SR, 1-(4-aminobenzyl)-3-((S)-2-((R)-2-(benzo[b]thiophen-7-yl)pyrrolidin-1-yl)-1-(5-bromo-2-methoxyphenyl)-2-oxoethyl)urea] | low propidium iodide fluorescence | – | not effective | reduced LDH release | – | – | 40 ± 5 nM
